From patent US20140235520A1, “Perfume Compositions” (Givaudan Nederland Services B.V., priority 2005, published 2014)

Tests used:
[1] = system: Escherichia coli ATCC 10536; assay: Biofilm detachment assay in quarter strength modified transparent silica toothpaste base (Formula B); format: cell-based; details: positive control, Example 3
Experimental: The procedure described in example 1(a) was repeated but wherein flavour compositions comprising flavour ingredients from the oral care palette to be tested were prepared. The compositions were added to a modified transparent silica toothpaste base (diluted to quarter strength) together with de-ionised water to produce test mixtures with the composition as set out in Formula B below. [table] A percentage detachment value (PDV) for each test mixture was then calculated using the following formula: PDV=100−([OD540 for Test Mixture÷OD540 for Water Control]×100). […] The PDV scores were therefore adjusted to account for base influences on flavour behaviour and Detachment Index (DI) values quoted for each flavour composition.

[2] = system: Escherichia coli ATCC 10536; assay: Standardised biofilm detachment assay (96 well microtitre plate, crystal violet OD540) in quarter strength GPC base Formula A; format: cell-based; details: for Group (PDV class: active / non-active / antagonist to biofilm detachment): ingredient as 1 of 4 equal-weight ingredients (other 3 Group B), perfume 0.25% w/w in quarter strength GPC base Formula A, 20 min 21° C., flavour ingredients classed in toothpaste base

Row | Compound | PDV [1] | PDV ([2]; positive control, 2% w/w in deionised water) | Group (PDV class: active / non-active / antagonist to biofilm detachment) [2]
1 | CCCCCCCCCCCCOS(=O)(=O)[O-].[Na+] [SLS, sodium lauryl sulphate, reference compound] | about 80% | about 80% | 
2 | CC(=O)C1=C(C)C2CC3(C1)C(C)CCC3C2(C)C (stereo not drawn) [1-(2,6,6,8-tetramethyltricyclo [5.3.1.0̂{1,5}]undec-8-en-9-yl)ethanone] |  |  | A (Group A materials that assist biofilm detachment are defined as those having a PDV (as defined above) of at least 9)
3 | CCC(=O)OC1CC2CC1C1C=CCC21 (stereo not drawn) [tricyclo[5.2.1.0̂{2,6}]dec-4-en-8-yl propanoate] |  |  | B (Group B materials that are non-active to biofilm detachment are defined as those having a PDV (as defined above) of less than 9 and greater than 0)
4 | CC1(C)CCCC2(C)C1CCC1(C)OCCC12 (stereo not drawn) [3a,6,6,9a-tetramethyldodecahydronaphtho[2,1-{b}]furan] |  |  | B (Group B materials that are non-active to biofilm detachment are defined as those having a PDV (as defined above) of less than 9 and greater than 0)
5 | COc1ccc(CC(C)C=O)cc1 (stereo not drawn) [2-methyl-3-[4-(methyoxy)phenyl]propanal] |  |  | C (Group C materials that are antagonistic to biofilm detachment are defined as those having a PDV (as defined above) of less than or equal to 0)
